Assay results from US11464770B2, “Anticancer pharmaceutical composition” (NATIONAL CANCER CENTER, priority 2016, dated 2022).
Where two headings read alike, the source gives them in different places.

How the values were obtained:
[1] = test system: RT4: human urinary bladder transitional cell papilloma; experiment: Cell based assay, cytotoxicity in RT4 papilloma cells (selectivity); conditions: Homo sapiens, RT-4; RT4 cells
neuroblastoma cell lines = experiment: Cell based assay, cell viability (CellTiter-Glo), neuroblastoma cell lines; conditions: Homo sapiens; SH-SY5Y cell line
Procedure, shortened: (§1)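 Cells were trypsinized, seeded, and left 24 h before compound was added at 0 to 2 μM final. After a further 72 h of culture, viability was read by ATP-based luminescence.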

brain cancer cell lines = experiment: Cell based assay, cell viability (CellTiter-Glo), brain cancer cell lines; conditions: Homo sapiens
[2] = test system: bladder cancer cell lines; experiment: Cell based assay, cell viability (CellTiter-Glo), bladder cancer cell lines; conditions: 72 hours treatment, 0 to 2 μM, CellTiter-Glo
Procedure, shortened: as §1

[3] = test system: ovarian cancer cell lines; experiment: Cell based assay, cell viability (CellTiter-Glo), ovarian cancer cell lines; conditions: Homo sapiens; OVCAR-3 cells
Procedure, shortened: as §1

[4] = U138-MG, U-138 MG cell line, read-out: IC50, Brain cancer cell line U-138 MG
[5] = T98G cell line, read-out: IC50, Brain cancer cell line T98G
[6] = U-251 MG cell line, read-out: IC50, Brain cancer cell line U-251 MG
[7] = 5637 cells, read-out: IC50, bladder cancer cell line 5637
[8] = Homo sapiens, T-24, T24 cells, read-out: IC50, bladder cancer cell line T24
[9] = Homo sapiens, J82 cells, read-out: IC50, bladder cancer cell line J82

SMILES	IC50 [1] [µM]	IC50 (neuroblastoma cell lines) [µM]	IC50 (brain cancer cell lines; [4]) [µM]	IC50 (brain cancer cell lines; [5]) [µM]	IC50 (brain cancer cell lines; [6]) [µM]	IC50 [2, 7] [µM]	IC50 [2, 8] [µM]	IC50 [2, 9] [µM]	IC50 [3] [µM]	IC50 ([2]; Homo sapiens, KU-19-19 cells, read-out: IC50, bladder cancer cell line KU-19-19) [µM]
CC(=O)c1c([S+]([O-])Cc2ccc(C(C)(C)C)cc2)[nH]c2c(Br)ccc(Cl)c2c1=O (centres unmarked) [Compound 60, 3-acetyl-8-bromo-2-((4-(tert-butyl)benzyl)sulfinyl)-5-chloroquinolin-4(1H)-one]	> 10	> 2	> 2	> 10	> 2	> 2	1.72	> 2	> 2	
CC(=O)c1c([S+]([O-])Cc2cccnc2)[nH]c2c(Br)ccc(Cl)c2c1=O (centres unmarked) [Compound 84, 3-acetyl-8-bromo-5-chloro-2-((pyridin-3-ylmethyl)sulfinyl)quinolin-4(1H)-one]	> 10	0.6	> 2	> 10	> 2	> 2	1.03	> 2	0.59	
CC(=O)c1c([S+]([O-])Cc2ccc([N+](=O)[O-])cc2)[nH]c2c(Br)ccc(Cl)c2c1=O (centres unmarked) [Compound 33, 3-acetyl-8-bromo-5-chloro-2-((4-nitrobenzyl)sulfinyl)quinolin-4(1H)-one]	> 10	> 2	> 2	> 10	1.11	> 2	1.03	> 2	1.18	
COc1cc(C[S+]([O-])c2[nH]c3c(Br)ccc(Cl)c3c(=O)c2C(C)=O)cc(OC)c1 (centres unmarked) [Compound 59, 3-acetyl-8-bromo-5-chloro-2-((3,5-dimethoxybenzyl)sulfinyl)quinolin-4(1H)-one]	> 10	> 2	1.5	> 10	1.28	> 2	1.11	> 2	0.84	
CC(=O)c1c([S+]([O-])Cc2ccc(F)c(Cl)c2)[nH]c2c(Br)ccc(Cl)c2c1=O (centres unmarked) [Compound 31, 3-acetyl-8-bromo-5-chloro-2-((3-chloro-4-fluorobenzyl)sulfinyl)quinolin-4(1H)-one]	> 10	> 2	1.79	> 10	1.09	1.23	1.12	1.38	0.71	
CC(=O)c1c([S+]([O-])Cc2c(F)cccc2Cl)[nH]c2c(Br)ccc(Cl)c2c1=O (centres unmarked) [Compound 74, 3-acetyl-8-bromo-5-chloro-2-((2-chloro-6-fluorobenzyl)sulfinyl)quinolin-4(1H)-one]	> 10	> 2	1.44	> 10	> 2	1.6	1.07	> 2	0.98	
CC(=O)c1c([S+]([O-])Cc2ccc(C(F)(F)F)cc2)[nH]c2c(Br)ccc(Cl)c2c1=O (centres unmarked) [Compound 70, 3-acetyl-8-bromo-5-chloro-2-((4-(trifluoromethyl)benzyl)sulfinyl)quinolin-4(1H)-one]	> 10	> 2	1.52	> 10	1.14	1.73	1.69	1.94	1.18	
CC(=O)c1c([S+]([O-])Cc2ccc(OC(F)(F)F)cc2)[nH]c2c(Br)ccc(Cl)c2c1=O (centres unmarked) [Compound 71, 3-acetyl-8-bromo-5-chloro-2-((4-(trifluoromethoxy)benzyl)sulfinyl)quinolin-4(1H)-one]	> 10	> 2	> 2	> 10	> 2	1.51	1.39	1.98	1.31	
CC(=O)c1c([S+]([O-])Cc2ccc(F)cc2F)[nH]c2c(Br)ccc(Cl)c2c1=O (centres unmarked) [Compound 29, 3-acetyl-8-bromo-5-chloro-2-((2,4-difluorobenzyl)sulfinyl)quinolin-4(1H)-one]	> 10	> 2	1.38	> 10	1.14	1.33	1.09	> 2	0.8	
CC(=O)c1c([S+]([O-])Cc2ccc([S+]([O-])C(F)(F)F)cc2)[nH]c2c(Br)ccc(Cl)c2c1=O (centres unmarked) [Compound 64, 3-acetyl-8-bromo-5-chloro-2-((4-((trifluoromethyl)sulfinyl)benzyl)sulfinyl)quinolin-4(1H)-one]	> 10	> 2	1.43	> 10	> 2	1.52	1.04	1.96	0.9	
CC(=O)c1c([S+]([O-])Cc2cc(F)cc(S(F)(F)(F)(F)F)c2)[nH]c2c(Br)ccc(Cl)c2c1=O (centres unmarked) [Compound 76, 3-acetyl-8-bromo-5-chloro-2-((3-fluoro-5-(pentafluoro--sulfanyl)benzyl)sulfinyl)quinolin-4(1H)-one]	> 10	> 2	> 2	> 10	> 2	> 2	1.79	> 2	1.46	
COc1cc(S(F)(F)(F)(F)F)ccc1C[S+]([O-])c1[nH]c2c(Br)ccc(Cl)c2c(=O)c1C(C)=O (centres unmarked) [Compound 75, 3-acetyl-8-bromo-5-chloro-2-((2-methoxy-4-(pentafluoro--sulfanyl)benzyl)sulfinyl)quinolin-4(1H)-one]	> 10	> 2	1.37	> 10	1.09	1.57	1.33	1.48	1.36	
CC(=O)c1c([S+]([O-])Cc2c(F)c(F)c(F)c(F)c2F)[nH]c2c(Br)ccc(Cl)c2c1=O (centres unmarked) [Compound 78, 3-acetyl-8-bromo-5-chloro-2-(((perfluorophenyl)methyl)sulfinyl)quinolin-4(1H)-one]	> 10	> 2	> 2	> 10	> 2	> 2	1.8	> 2	1.01	
COC(=O)c1ccc(C[S+]([O-])c2[nH]c3c(Cl)ccc(Cl)c3c(=O)c2C(C)=O)o1 (centres unmarked) [Compound 89, methyl 5-(((3-acetyl-5,8-dichloro-4-oxo-1,4-dihydroquinolin-2-yl)sulfinyl)methyl)furan-2-carboxylate]	> 10	1.04	> 2	> 10	> 2	> 2	1.75	> 2	0.86	
CC(=O)c1c([S+]([O-])Cc2cccc(F)c2)[nH]c2c(Br)ccc(Cl)c2c1=O (centres unmarked) [Compound 50, 3-acetyl-8-bromo-5-chloro-2-((3-fluorobenzyl)sulfinyl)quinolin-4(1H)-one]	> 10	> 2	> 2	> 10	1.28	1.47		> 2	0.89	
CC(=O)c1c([S+]([O-])Cc2ccc(I)cc2)[nH]c2c(Cl)ccc(Cl)c2c1=O (centres unmarked) [Compound 83, 3-acetyl-5,8-dichloro-2-((4-iodobenzyl)sulfinyl)quinolin-4(1H)-one]	> 10	1.24	> 2	> 2	1.35	1.37	1.5	> 2	0.82	
CC(=O)c1c([S+]([O-])Cc2ccc([N+](=O)[O-])cc2)[nH]c2c(Cl)ccc(Cl)c2c1=O (centres unmarked) [Compound 57, 3-acetyl-5,8-dichloro-2-((4-nitrobenzyl)sulfinyl)quinolin-4(1H)-one]	> 10	> 2	> 10	> 10	> 2	> 2	1.79	> 2	> 2	
CC(=O)c1c([S+]([O-])Cc2ccc(C#N)cc2)[nH]c2c(Br)ccc(Cl)c2c1=O (centres unmarked) [Compound 73, 4-(((3-acetyl-8-bromo-5-chloro-4-oxo-1,4-dihydroquinolin-2-yl)sulfinyl)methyl)benzonitrile]	> 10	> 2	> 2	> 10	> 2	> 2		> 2	1.11	> 2
CC(=O)c1c([S+]([O-])Cc2cc(Cl)ccc2Cl)[nH]c2c(Br)ccc(Cl)c2c1=O (centres unmarked) [Compound 44, 3-acetyl-8-bromo-5-chloro-2-((2,5-dichlorobenzyl)sulfinyl)quinolin-4(1H)-one]	> 10	> 2	> 2	> 10	1.05	1.35	0.92	2.07	0.84	
